# Source: ChEMBL document CHEMBL1777785, “A novel approach for predicting P-glycoprotein (ABCB1) inhibition using molecular interaction fields” (J Med Chem, 2011)
# Target: T1, ATP-dependent translocase ABCB1 (Homo sapiens, UniProt P08183)
# Settings: not given
# T1 sequence (P08183 whole entry): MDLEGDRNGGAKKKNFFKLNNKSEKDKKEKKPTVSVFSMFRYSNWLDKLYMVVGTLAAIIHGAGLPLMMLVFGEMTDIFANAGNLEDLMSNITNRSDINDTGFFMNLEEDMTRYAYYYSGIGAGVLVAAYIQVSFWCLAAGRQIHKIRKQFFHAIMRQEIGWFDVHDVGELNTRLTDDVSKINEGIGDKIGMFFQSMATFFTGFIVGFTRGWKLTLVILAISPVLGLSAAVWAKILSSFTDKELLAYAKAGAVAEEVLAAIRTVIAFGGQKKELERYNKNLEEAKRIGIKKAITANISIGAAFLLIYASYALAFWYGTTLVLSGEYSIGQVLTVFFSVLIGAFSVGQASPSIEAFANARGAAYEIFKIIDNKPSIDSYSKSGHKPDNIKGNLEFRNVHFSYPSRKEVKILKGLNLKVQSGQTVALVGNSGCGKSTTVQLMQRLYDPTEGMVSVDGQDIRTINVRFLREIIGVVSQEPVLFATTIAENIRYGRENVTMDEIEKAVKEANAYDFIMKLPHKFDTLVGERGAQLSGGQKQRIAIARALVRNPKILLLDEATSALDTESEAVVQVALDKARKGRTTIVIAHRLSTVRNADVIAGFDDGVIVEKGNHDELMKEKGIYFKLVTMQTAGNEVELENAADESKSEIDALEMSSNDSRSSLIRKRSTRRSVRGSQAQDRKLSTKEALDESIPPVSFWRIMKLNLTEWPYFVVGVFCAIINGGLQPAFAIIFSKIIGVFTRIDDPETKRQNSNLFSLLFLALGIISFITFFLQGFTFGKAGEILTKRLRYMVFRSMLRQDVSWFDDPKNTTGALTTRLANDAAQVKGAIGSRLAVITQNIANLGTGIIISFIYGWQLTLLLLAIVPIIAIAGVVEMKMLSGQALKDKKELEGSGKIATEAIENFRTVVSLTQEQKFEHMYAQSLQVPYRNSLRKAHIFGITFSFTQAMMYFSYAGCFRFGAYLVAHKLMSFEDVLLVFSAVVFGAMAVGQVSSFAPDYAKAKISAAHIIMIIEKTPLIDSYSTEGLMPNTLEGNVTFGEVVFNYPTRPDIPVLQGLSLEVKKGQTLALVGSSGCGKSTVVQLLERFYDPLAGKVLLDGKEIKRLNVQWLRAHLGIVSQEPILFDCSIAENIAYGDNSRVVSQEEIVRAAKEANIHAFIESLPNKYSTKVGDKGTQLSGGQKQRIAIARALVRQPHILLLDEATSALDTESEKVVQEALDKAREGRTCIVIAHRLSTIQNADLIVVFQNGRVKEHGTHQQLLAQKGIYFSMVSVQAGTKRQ
row,SMILES,IC50 [µM]
1,O=C1NCCN1CCN1CCC(c2cn(-c3ccc(F)cc3)c3ccc(Cl)cc23)CC1 [SERTINDOLE],6.5

# Target: T1, ATP-dependent translocase ABCB1
# Settings: l5178, 20 min, 100 µM
row,SMILES,Alpha max
1,C=CCc1ccccc1OCC(O)CNC(C)C (centres undefined) [ALPRENOLOL],0.05
2,CC1(C)S[C@@H]2[C@H](NC(=O)[C@H](C(=O)O)c3ccsc3)C(=O)N2[C@H]1C(=O)O [TICARCILLIN],0
3,CCN(CC)CCCN(c1ccccc1)C1Cc2ccccc2C1 [APRINDINE],0.16
4,CCOc1cc(CC(=O)N[C@@H](CC(C)C)c2ccccc2N2CCCCC2)ccc1C(=O)O [REPAGLINIDE],0.35
5,O=C1Cc2cc(CCN3CCN(c4nsc5ccccc45)CC3)c(Cl)cc2N1 [ZIPRASIDONE],0.19
6,O=C1NCCN1CCN1CCC(c2cn(-c3ccc(F)cc3)c3ccc(Cl)cc23)CC1 [SERTINDOLE],0.74
7,O=C1CCc2ccc(OCCCCN3CCN(c4cccc(Cl)c4Cl)CC3)cc2N1 [ARIPIPRAZOLE],0.99
8,CC(C)[C@H]1CC[C@H](C(=O)N[C@H](Cc2ccccc2)C(=O)O)CC1 [NATEGLINIDE],0
